Source: patent US10662229B2, “Spider venom peptides and methods of use for modulating sodium channels” (priority 2016, dated 2020)
Where a SMILES comes first, the peptide text is derived from it. Bridges are numbered along the chain shown (N, C = ends).

Key:
[1] = test system: OD1-induced spontaneous pain behaviours in mice; test: OD1 model of spontaneous pain behaviours; format: in vivo; details: intraplantar 1 μM, co-injected with OD1
Description: (§1) For behavioural assessment adult male C57BL/6J mice aged 6-8 weeks were used. Animals were housed in groups of 3 or 4 per cage, under 12 h light-dark cycles and had standard rodent chow and water ad libitum.
OD1 was diluted in phosphate-buffered saline/0.1% BSA (300 nM) and administered by shallow subcutaneous (intraplantar) injection to the left hind paw of mice in a volume of 40 μL under light isoflurane (3%) anesthesia. Mice were then placed individually into polyvinyl boxes (10×10×10 cm), and spontaneous pain behavior (licks and flinches) was counted by an investigator unaware of the treatments received from video recordings for 10 min post-injection.

[2] = test system: carrageenan-induced mechanical and thermal allodynia in mice; test: Carrageenan model; format: in vivo; details: naloxone methiodide 100 mg/kg i.p.
Description: as §1
λ-Carrageenan (Sigma-Aldrich Co.) was dissolved in phosphate buffered saline to a 1% w/v solution (prepared 24 h prior) and administered by intraplantar injection to the left hind paw of mice in a volume of 40 μL under light isoflurane (3%) anaesthesia. Behavioural assessment (mechanical and thermal thresholds) was performed 3 hours after injection of carrageenan.
Mechanical allodynia was assessed using an electronic von Frey apparatus (MouseMet Electronic von Frey, TopCat Metrology Ltd, United Kingdom). […] The force that elicited paw withdrawal was calculated using the MouseMet Software. The paw withdrawal force (PWF) was determined from the average of three tests, separated by at least 2 min.
Mice were habituated in individual mouse runs for at least 5 min prior to testing. […] Removal of the paw and/or the probe by the investigator terminates heating, and triggers display of the withdrawal temperature on the readout, without the need for the investigator to manually stop the heating or record the temperature, until the reset button is pressed. The temperature that elicited a paw withdrawal, known as the paw withdrawal temperature (PWT), was determined by a single test.

hNav1.1 = biological target: T1, hNav1.1 (Homo sapiens, UniProt P35498); test: FLIPR membrane potential assay, hNav1.1; format: cell-based
T1 construct: host or cells: HEK293
Procedure, shortened: (§2)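 Cells plated 48 h before assay, then dye-loaded (red membrane potential dye, 1× in PSS, 30 min, 37° C), then agonist added and membrane potential tracked on FLIPR^TETRA for 300 s. HEK293 stable lines expressing each hNav subtype.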

hNav1.2 = biological target: T2, hNav1.2 (Homo sapiens, UniProt Q99250); test: FLIPR membrane potential assay, hNav1.2; format: cell-based
T2 construct: host or cells: HEK293
Procedure, shortened: as §2

hNav1.3 = biological target: T3, hNav1.3 (Homo sapiens, UniProt Q9NY46); test: FLIPR membrane potential assay, hNav1.3; format: cell-based
T3 construct: host or cells: HEK293
Procedure, shortened: as §2

hNav1.4 = biological target: T4, hNav1.4 (Homo sapiens, UniProt P35499); test: FLIPR membrane potential assay, hNav1.4; format: cell-based
T4 construct: host or cells: HEK293
Procedure, shortened: as §2

hNav1.5 = biological target: T5, hNav1.5 (Homo sapiens, UniProt Q14524); test: FLIPR membrane potential assay, hNav1.5; format: cell-based
T5 construct: host or cells: HEK293
Procedure, shortened: as §2

hNav1.6 = biological target: T6, hNav1.6 (Homo sapiens, UniProt Q9UQD0); test: FLIPR membrane potential assay, hNav1.6; format: cell-based
T6 construct: host or cells: HEK293
Procedure, shortened: as §2

hNav1.7 [3] = biological target: T7, hNav1.7 (Homo sapiens, UniProt Q15858); test: FLIPR membrane potential assay, hNav1.7; format: cell-based
T7 construct: host or cells: HEK293
Procedure, shortened: as §2

hNav1.8 = biological target: T8, hNav1.8 (Homo sapiens, UniProt Q9Y5Y9); test: FLIPR membrane potential assay, hNav1.8; format: cell-based
T8 construct: host or cells: HEK293
Procedure, shortened: as §2

hNav1.7 [4] = biological target: T7, hNav1.7; test: Automated patch clamping (QPatch-16), hNav1.7; format: cell-based; details: 100 nM
Description: HEK293 cells stably expressing hNav1.1-1.7 or CHO cells stably expressing hNav1.8 (as described in Example 3 above) were cultured in a T-175 flask in selection antibiotic-free media at 37° C. Cells were grown to 70-80% confluence and harvested using Detachin (Bio-Scientific, NSW, Australia) at 37° C. for 2 min. Dissociated cells were then resuspended in Ex-Cell ACF CHO Medium with HEPES (25 mM; Sigma-Aldrich Co.) and allowed to recover on the QStirrer for 30 min.
The extracellular solution contained in mM: NaCl 145, KCl 4, CaCl2 2, MgCl2 1, HEPES 10 and glucose 10. The pH was adjusted to 7.4 with NaOH and osmolarity was adjusted with sucrose to 305 mOsm. The intracellular solution contained in mM: CsF 140, ethylene glycol tetraacetic acid (EGTA)/CsOH 1/5, HEPES 10 and NaCl 10. The pH was adjusted to 7.3 with CsOH and osmolarity adjusted with sucrose to 320 mOsm.
Whole-cell patch-clamp experiments were performed on a QPatch-16 automated electrophysiology platform (Sophion Bioscience, Ballerup, Denmark) using 16-channel planar patch chip plates (QPlates; Sophion Bioscience) with a patch hole diameter of 1 μm and resistance of 2±0.02 MΩ with the following parameters: positioning pressure −60 mbar, minimum seal resistance 0.1 GΩ, holding potential −100 mV, holding pressure −20 mbar.
Whole-cell currents were filtered at 5 kHz and acquired at 25 kHz.
The current-voltage (IV) curve was constructed with a holding potential of −80 mV followed by a pre-pulse of −100 mV for 50 ms and a series of 50 ms step pulses that ranged from −80 to 50 mV in 5 mV increments before returning to a holding potential of −80 mV. Voltage-dependence of activation was determined as normalized Nav conductance (GNa) using: GNa=INa/(Vmemb−Vrev), where Vmemb is the membrane potential and Vrev is the reversal potential for each cell. The voltage of activation data was fitted to a Boltzmann sigmoidal curve using GraphPad Prism, version 6.0.

[5] = test system: motor performance of mice; test: Motor assessment, Parallel Rod Floor Test; format: in vivo; details: i.p.; Pnc1a 3 mg/kg, PF-04856254 30 mg/kg, CNV1014802 30 mg/kg, GpTx-1 0.1 mg/kg, gabapentin 100 mg/kg
Description: as §1
Motor performance was assessed using the Parallel Rod Floor Test and analyzed using ANY-Maze software (Stoelting Co., version 4.70, Wood Dale, Ill., USA). […] Mice were then placed in the Parallel Rod Floor Test apparatus, and the distance travelled (m) and number of foot slips were recorded over 1 min using the ANY-Maze software. The ataxia index was calculated by dividing the number of foot slips by the distance travelled (m).

T7 sequence (Q15858 whole entry): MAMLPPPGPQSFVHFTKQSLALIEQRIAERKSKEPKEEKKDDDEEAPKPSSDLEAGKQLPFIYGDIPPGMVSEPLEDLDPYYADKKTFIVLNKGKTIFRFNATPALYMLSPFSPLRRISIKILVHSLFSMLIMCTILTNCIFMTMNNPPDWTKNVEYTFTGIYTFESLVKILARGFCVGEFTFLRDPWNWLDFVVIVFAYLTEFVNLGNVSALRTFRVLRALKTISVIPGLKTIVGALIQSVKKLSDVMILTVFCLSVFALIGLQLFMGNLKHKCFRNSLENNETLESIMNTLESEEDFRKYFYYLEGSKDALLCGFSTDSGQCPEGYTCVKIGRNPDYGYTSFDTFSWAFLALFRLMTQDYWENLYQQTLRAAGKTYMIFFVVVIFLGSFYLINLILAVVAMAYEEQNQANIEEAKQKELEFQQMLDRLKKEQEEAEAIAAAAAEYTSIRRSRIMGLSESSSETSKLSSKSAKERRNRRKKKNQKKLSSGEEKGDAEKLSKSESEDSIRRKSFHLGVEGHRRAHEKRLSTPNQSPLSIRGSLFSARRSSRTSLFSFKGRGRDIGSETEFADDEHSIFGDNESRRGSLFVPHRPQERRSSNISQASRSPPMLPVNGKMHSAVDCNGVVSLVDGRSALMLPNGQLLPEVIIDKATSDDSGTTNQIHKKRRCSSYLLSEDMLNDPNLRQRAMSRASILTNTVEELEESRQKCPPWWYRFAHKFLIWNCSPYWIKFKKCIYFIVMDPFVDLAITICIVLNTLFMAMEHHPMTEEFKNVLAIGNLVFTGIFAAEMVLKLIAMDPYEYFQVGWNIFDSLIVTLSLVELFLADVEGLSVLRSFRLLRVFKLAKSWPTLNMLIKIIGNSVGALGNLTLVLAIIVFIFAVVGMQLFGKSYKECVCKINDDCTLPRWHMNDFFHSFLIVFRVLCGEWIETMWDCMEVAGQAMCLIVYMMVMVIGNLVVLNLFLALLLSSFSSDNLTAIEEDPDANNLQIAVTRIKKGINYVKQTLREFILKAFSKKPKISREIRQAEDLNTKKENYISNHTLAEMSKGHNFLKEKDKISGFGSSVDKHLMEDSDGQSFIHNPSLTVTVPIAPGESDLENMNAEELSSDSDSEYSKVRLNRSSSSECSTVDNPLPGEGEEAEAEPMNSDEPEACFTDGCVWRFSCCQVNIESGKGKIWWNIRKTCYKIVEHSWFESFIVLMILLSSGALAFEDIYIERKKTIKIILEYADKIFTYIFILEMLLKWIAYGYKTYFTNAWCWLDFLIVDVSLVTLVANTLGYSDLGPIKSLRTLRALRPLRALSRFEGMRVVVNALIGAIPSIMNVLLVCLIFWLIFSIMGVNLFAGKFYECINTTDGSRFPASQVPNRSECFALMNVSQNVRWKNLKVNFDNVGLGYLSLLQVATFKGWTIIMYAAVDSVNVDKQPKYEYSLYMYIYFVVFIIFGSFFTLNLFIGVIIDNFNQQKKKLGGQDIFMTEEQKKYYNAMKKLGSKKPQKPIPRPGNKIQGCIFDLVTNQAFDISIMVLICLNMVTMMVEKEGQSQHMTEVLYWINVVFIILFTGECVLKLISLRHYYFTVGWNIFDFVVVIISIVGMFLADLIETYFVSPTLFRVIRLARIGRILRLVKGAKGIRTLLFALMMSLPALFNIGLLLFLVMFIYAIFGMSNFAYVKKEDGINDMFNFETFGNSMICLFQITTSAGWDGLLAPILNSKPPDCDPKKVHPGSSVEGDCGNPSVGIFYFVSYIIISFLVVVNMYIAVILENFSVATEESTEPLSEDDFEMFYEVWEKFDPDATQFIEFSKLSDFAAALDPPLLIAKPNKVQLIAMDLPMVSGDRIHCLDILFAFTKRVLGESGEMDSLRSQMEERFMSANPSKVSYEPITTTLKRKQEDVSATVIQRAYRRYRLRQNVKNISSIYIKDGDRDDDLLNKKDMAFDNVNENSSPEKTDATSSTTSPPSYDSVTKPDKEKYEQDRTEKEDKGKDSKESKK
T5 sequence (Q14524 whole entry): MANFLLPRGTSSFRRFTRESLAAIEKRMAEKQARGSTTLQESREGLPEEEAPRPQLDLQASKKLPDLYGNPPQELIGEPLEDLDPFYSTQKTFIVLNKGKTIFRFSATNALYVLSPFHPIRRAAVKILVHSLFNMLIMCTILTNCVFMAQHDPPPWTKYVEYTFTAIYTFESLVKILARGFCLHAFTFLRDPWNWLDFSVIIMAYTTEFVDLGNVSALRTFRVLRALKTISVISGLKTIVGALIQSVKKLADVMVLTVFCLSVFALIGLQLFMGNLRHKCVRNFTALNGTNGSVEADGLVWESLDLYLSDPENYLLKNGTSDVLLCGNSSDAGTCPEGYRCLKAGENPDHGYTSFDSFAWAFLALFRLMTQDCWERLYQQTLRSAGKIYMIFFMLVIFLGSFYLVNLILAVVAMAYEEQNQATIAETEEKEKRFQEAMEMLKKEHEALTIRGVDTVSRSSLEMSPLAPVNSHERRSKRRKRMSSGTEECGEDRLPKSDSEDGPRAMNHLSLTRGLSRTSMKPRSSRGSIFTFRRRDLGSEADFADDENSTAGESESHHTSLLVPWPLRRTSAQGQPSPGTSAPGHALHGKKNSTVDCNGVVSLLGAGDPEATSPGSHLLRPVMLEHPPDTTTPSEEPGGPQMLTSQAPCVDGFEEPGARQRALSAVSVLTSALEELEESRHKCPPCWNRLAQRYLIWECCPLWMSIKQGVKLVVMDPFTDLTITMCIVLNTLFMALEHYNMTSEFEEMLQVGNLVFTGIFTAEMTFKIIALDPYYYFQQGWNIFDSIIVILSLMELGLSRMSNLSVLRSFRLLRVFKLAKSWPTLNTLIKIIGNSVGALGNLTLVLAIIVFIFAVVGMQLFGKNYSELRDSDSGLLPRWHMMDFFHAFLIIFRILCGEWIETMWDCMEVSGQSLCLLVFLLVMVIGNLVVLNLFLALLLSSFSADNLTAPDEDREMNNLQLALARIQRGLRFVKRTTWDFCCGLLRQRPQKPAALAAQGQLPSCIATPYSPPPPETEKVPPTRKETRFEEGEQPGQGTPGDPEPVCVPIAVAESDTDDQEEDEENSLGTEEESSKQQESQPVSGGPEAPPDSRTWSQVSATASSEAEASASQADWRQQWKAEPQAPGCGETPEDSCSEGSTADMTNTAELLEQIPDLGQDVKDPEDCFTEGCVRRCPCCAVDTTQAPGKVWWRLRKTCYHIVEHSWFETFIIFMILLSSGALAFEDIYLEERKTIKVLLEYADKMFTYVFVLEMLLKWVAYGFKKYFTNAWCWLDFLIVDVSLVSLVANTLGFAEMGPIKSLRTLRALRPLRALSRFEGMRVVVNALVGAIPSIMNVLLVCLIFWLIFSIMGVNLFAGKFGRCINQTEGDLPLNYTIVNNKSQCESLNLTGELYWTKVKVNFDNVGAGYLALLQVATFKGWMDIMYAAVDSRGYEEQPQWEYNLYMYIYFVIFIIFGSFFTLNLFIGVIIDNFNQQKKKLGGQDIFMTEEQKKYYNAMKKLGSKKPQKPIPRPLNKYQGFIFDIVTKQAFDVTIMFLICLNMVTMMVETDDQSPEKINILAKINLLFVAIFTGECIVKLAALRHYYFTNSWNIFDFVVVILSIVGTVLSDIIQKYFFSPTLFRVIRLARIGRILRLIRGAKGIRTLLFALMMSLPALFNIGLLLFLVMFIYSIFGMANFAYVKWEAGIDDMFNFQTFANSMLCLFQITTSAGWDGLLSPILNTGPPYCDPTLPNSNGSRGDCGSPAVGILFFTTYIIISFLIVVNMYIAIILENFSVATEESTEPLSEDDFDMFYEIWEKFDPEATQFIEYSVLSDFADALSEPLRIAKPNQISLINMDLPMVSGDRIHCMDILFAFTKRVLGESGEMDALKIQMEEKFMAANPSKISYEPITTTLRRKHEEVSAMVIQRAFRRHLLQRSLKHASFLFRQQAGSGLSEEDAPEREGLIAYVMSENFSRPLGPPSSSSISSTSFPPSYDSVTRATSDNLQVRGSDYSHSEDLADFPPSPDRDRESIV

ProTxII: Nav1.7 selective inhibitor (Peptides International) [reference compound]
OD1-induced pain behaviours, compared to an equivalent concentration of Pnc1a [1]: only partially reversed

C=CC[N+]1(C)CC[C@]23c4c5ccc(O)c4O[C@H]2C(=O)CC[C@@]3(O)[C@H]1C5 (stereo partly shown) [naloxone methiodide]
analgesic effects of the Pnc1a/oxycodone combination on mechanical allodynia [2]: reversed
analgesic effects of the Pnc1a/oxycodone combination on thermal allodynia [2]: reversed

CSCC[C@@H]1NC(=O)[C@H](Cc2ccc(O)cc2)NC(=O)[C@H](CCCNC(=N)N)NC(=O)[C@@H](NC(=O)[C@@H](N)CC(=O)O)CSSC[C@@H]2NC(=O)[C@@H]3CSSC[C@@H](C(=O)N[C@@H](C)C(=O)N[C@@H](Cc4c[nH]c5ccccc45)C(=O)N[C@@H](CC(=O)O)C(=O)N[C@@H](Cc4ccccc4)C(=O)N[C@H](C(=O)N[C@@H](Cc4ccccc4)C(=O)N[C@H](C(=O)O)[C@@H](C)O)[C@@H](C)O)NC(=O)[C@H](Cc4ccc(O)cc4)NC(=O)[C@H](CCCCN)NC(=O)[C@H](CCSC)NC(=O)[C@H](CC(=O)O)NC(=O)[C@H](CCCNC(=N)N)NC(=O)[C@H](CCCCN)NC(=O)[C@H](CSSC[C@H](NC(=O)[C@H](CC(=O)O)NC(=O)CNC(=O)[C@H](Cc4ccccc4)NC1=O)C(=O)N[C@@H](CCC(=O)O)C(=O)N[C@@H](CCCCN)C(=O)N[C@@H](CC(=O)O)C(=O)N[C@@H](CCC(=O)O)C(=O)N[C@@H](CC(=O)O)C(=O)N3)NC(=O)CNC(=O)[C@H](CC(C)C)NC(=O)[C@H](Cc1c[nH]cn1)NC(=O)[C@H](CCCCN)NC2=O [[K24D]Pnc1a] (H-DCRYMFGDCEKDEDCCKHLGCKRDMKYCAWDFTFT-OH; disulfide 2-16, 9-21, 15-28)
IC50 (hNav1.1): 32 µM
Selectivity for Nav1.7, Nav subtype 1.1 (hNav1.1; membrane potential assay): 63
IC50 (hNav1.2): 38 µM
Selectivity for Nav1.7, Nav subtype 1.2 (hNav1.2; membrane potential assay): 7
IC50 (hNav1.3): 20 µM
Selectivity for Nav1.7, Nav subtype 1.3 (hNav1.3; membrane potential assay): 39
IC50 (hNav1.4): 12 µM
Selectivity for Nav1.7, Nav subtype 1.4 (hNav1.4; membrane potential assay): 24
IC50 (hNav1.5): > 30 µM
Selectivity for Nav1.7, Nav subtype 1.5 (hNav1.5; membrane potential assay): 59
IC50 (hNav1.6): > 30 µM
Selectivity for Nav1.7, Nav subtype 1.6 (hNav1.6; membrane potential assay): 14
IC50 (hNav1.7 [3]): 510 nM
Selectivity for Nav1.7, Nav subtype 1.7 (hNav1.7 [3]; membrane potential assay, reference subtype): 1
IC50 (hNav1.8): > 30 µM
Selectivity for Nav1.7, Nav subtype 1.8 (hNav1.8; membrane potential assay): 40
effect on the current voltage (IV) relationship of Nav1.7 (hNav1.7 [4]): minimal effect

NC(=O)[C@@H]1CC[C@H](c2ccc(OCc3ccccc3F)cc2)N1 [CNV1014802, raxatrigine]
ataxia index (foot slips per metre travelled) compared to vehicle control [5]: no significant effect

NCC1(CC(=O)O)CCCCC1 [gabapentin]
ataxia index (foot slips per metre travelled) compared to vehicle control [5]: significant increase
